Reference: patent US11491127B2, “Therapeutic use of compounds” (UCL BUSINESS LTD, priority 2010, dated 2022)
Like-named read-outs stand apart in the source and are kept apart here.

Assays:
[1] = tested on: phosphoinositide (PIP and PIP2) turnover in Dictyostelium AX2 cells; assay: Dictyostelium phospholipid labelling (PIP and PIP2 turnover); format: cell-based, Dictyostelium discoideum; conditions: for activity at 500 µM: Dictyostelium, 0.1 h
Method: Phospholipid labelling was quantified using a Typhoon phosphor-imager. Even loading was determined using total lipid stain with copper sulphate.

[2] = tested on: PTZ-induced epileptiform activity in entorhinal cortex-hippocampal slices; assay: In vitro PTZ acute seizure model, entorhinal cortex-hippocampus slices; format: cell-based, rat; conditions: PTZ 2 mM, [K+] 6 mM; compounds equimolar 1 mM; 30 to 40 minutes after application
Method: The rats (p21) were decapitated after killing by intraperitoneal injection with an overdose of pentobarbitone (500 mg/kg). The brain was removed and placed in ice-cold sucrose solution in mM: NaCl 87, KCl 2.5, MgCl2 7, CaCl2 0.5, NaH2PO4 1.25, sucrose 75, glucose 25, equilibrated with 95% 02/5% CO2 (pH 7.4). Horizontal combined entorhinal cortex-hippocampus slices (350 μm) were prepared with a Leica vibratome (Leica V T1200S) and were then stored in an interface chamber that contained artificial cerebrospinal fluid solution (aCSF) containing in mM: NaCl 119, KCl 2.5, MgSO4 4, CaCl2 4, NaHCO326.2, NaH2PO4 1, glucose 11, and gassed with 95% O2/5% CO2. They were stored for over one hour before being transferred to a submersion recording chamber continually perfused with carbogenated aCSF for recording. Field potential recordings were made by placing glass microelectrodes (˜1-2 MΩ) filled with aCSF solution in stratum radiatum of CA1. Bipolar stimulating electrodes were positioned in the Schaffer collateral/commissural fibre pathway in stratum radiatum to confirm slice viability. In the PTZ acute seizure model, PTZ (2 mM) was added to the perfusate and [K+] was increased to 6 mM in order to induce epileptiform activity (Armand et al., 1998). In the low Mg^2+ acute seizure model, Mg^2+ free aCSF was applied to generate rhythmic short recurrent discharges. Novel anticonvulsants were applied once the frequency and amplitude of the epileptiform discharges were stable over a period of 10 min. Anticonvulsant effects were evaluated by measuring the variation of frequency of the discharges every minute. The data acquired from the 30 to 40 minutes after application novel anticonvulsants were compared by ANOVA followed by post-hoc testing using Tukey test, using SPSS statistical analysis.

[3] = tested on: release of 3H arachidonic acid / palmitic acid radiolabel from Dictyostelium cells; assay: Fatty acid release (3H radiolabel release from labelled cells); format: cell-based, Dictyostelium discoideum; conditions: for activity at 500 µM: Dictyostelium, 0.5 h, 3H-AA labelled cells, 0.5 mM treatment, read-out: AA release [% of control]; for effect of PLA2 inhibitors on radiolabel release from 3H-AA cells: BEL 80 μM, MAFP 50 μM, BPB 20 μM, cocktail of all three
[4] = tested on: uptake of 3H arachidonic acid / palmitic acid into Dictyostelium cells; assay: Fatty acid uptake (3H radiolabel incorporation into cells); format: cell-based, Dictyostelium discoideum
[5] = tested on: inositol levels in Dictyostelium cells; assay: Inositol levels in treated Dictyostelium cells; format: cell-based, Dictyostelium discoideum; conditions: time period causing phosphoinositide attenuation (9 min)
Method: Following a 6 min incubation, labelling solution was removed and cells were lysed in acidified methanol and phospholipids were separated as previously detailed (Williams et al., 1999). Phospholipid labelling was quantified using a Typhoon phosphor-imager. Even loading was determined using total lipid stain with copper sulphate. Inositol levels were measured from five hour developed cells (similar to phospholipid labelling), following lyophilisation, as previously described (Maslanski & Busa, 1990).

[6] = Table 2; cited from earlier work
[7] = read-out: PIP Level (% control), Table 1, 0.5 mM compound, 3 min pre-treatment + 6 min labelling, wild type Dictyostelium
[8] = Table 1, 0.5 mM compound, 3 min pre-treatment + 6 min labelling, wild type Dictyostelium
[9] = read-out: PIP level % control, Table 2, VPA and straight chain acids in Dictyostelium
[10] = Table 1, wild type Dictyostelium

CCCCC(CC)C(=O)O (stereo not drawn) [2-ethylhexanoic acid]
activity at 500 µM [1, 7]: 22.2%

CCCCC(C)C(=O)O (stereo not drawn) [2-methylhexanoic acid]
activity at 500 µM [1, 7]: 68.1%

CCCCC(C)(C)C(=O)O [2,2-dimethylhexanoic]
PIP Level (% control) [1, 8]: 29.7 % control

CCCCCCC(CCC)C(=O)O (stereo not drawn) [2-propyloctanoic acid]
frequency of epileptiform discharges (seizure discharge frequency) [2]: 5.3±3.3% | activity at 500 µM ([3]; Table 3, 30 min): 45% | radiolabel release activity relative to control ([3]; Table 3, 30 min, 0.5 mM): ≤ 45 % of control

CCCCCCCCCC(=O)O [decanoic acid]
frequency of epileptiform discharges (seizure discharge frequency) [2]: 0.23±0.23% | activity at 500 µM [1, 7]: 12.9% | activity at 500 µM [1, 9]: 12.9% | activity at 500 µM ([3]; Table 3, 30 min): 62%

CCCCCC(C)CCC(=O)O (stereo not drawn) [4-methylnonanoic acid]
activity at 500 µM [1, 7]: 45% | activity at 500 µM ([3]; Table 3, 30 min): 63%

CCCC(C(=O)O)C(C)C (stereo not drawn) [PIA, propylisopropylacetic acid]
effect on 3H-AA uptake compared with VPA ([4]; 3H-AA, FIG. 9): elevated uptake | activity at 500 µM [1, 7]: 15.4% | inhibitory effect on radiolabel release ([3]; 3H-AA, FIG. 9): strong

CCCOC(=O)C(C)CCC (stereo not drawn) [n-propyl 2-methylvalerate]
activity at 500 µM [1, 7]: 121%

CC1(C)C(C(N)=O)C1(C)C [TMCD, tetramethylcyclopropane-carboxamide]
PIP Level (% control) [1, 8]: 72.5 % control

C=CCC(C)(C)C(=O)O [2,2-dimethyl-4-pentenoic acid]
activity at 500 µM [1, 7]: 60%

CNC(=O)C1C(C)(C)C1(C)C [MTMCD, N-methyl-tetramethyl-cyclopropane carboxamide]
PIP Level (% control) [1, 8]: 50.8 % control

CC(CC(=O)O)CC(C)(C)C (stereo not drawn) [3,5,5-trimethylhexanoic acid]
activity at 500 µM [1, 7]: 32%

CCCC(CO)CCC [2-propyl-1-pentanol]
activity at 500 µM [1, 7]: 101%

CCCCC=O [pentanal]
activity at 500 µM [1, 7]: 52%

CCCCCCCCC(CC)C(=O)O (stereo not drawn) [2-ethyl-decanoic]
activity at 500 µM ([3]; Table 3, 30 min): 73%

CC/C=C/C(=O)O [trans-pent-2-enoic acid]
activity at 500 µM [1, 7]: 50.4%

NCCCC(=O)O [GABA, 4-aminobutanoic acid, reference compound]
activity at 500 µM [1, 7]: 60.8%

CCCCC(CC)CCC(=O)O (stereo not drawn) [4-ethyloctanoic acid]
activity at 500 µM [1, 7]: 13.2% | activity at 500 µM ([3]; Table 3, 30 min): 87%

CCCCCCCCC(=O)O [nonanoic acid]
frequency of epileptiform discharges (seizure discharge frequency) [2]: 20.9±7.5% | activity at 500 µM [1, 7]: 8% | activity at 500 µM [1, 9]: 8% | reduction of PIP2 signalling [1, 10]: 93% | reduction of PIP signalling [1, 10]: 92% | reduction in inositol levels [5]: do not acutely deplete inositol | pKa [6]: 4.95 | activity at 500 µM ([3]; Table 3, 30 min): 66%

O=C(O)C(c1ccccc1)c1ccccc1 [Diphenylacetic acid, 2,2-diphenylacetic acid]
activity at 500 µM [1, 7]: 39%

C=CC(C)CC(=O)O (stereo not drawn) [3-methyl-4-pentenoic acid]
activity at 500 µM [1, 7]: 84%

CC(C)(C)CC(=O)O [TBA, tert-butylacetic acid]
activity at 500 µM [1, 7]: 21.4%

CCCCCCCCC(CO)CCCCCC (stereo not drawn) [2-hexyl-1-decanol]
activity at 500 µM [1, 7]: 191%

CC(C)C(C(=O)O)C(C)C [DIA, diisopropylacetic acid]
activity at 500 µM [1, 7]: 18.6%

CCCCC(=O)O [pentanoic acid]
frequency of epileptiform discharges (seizure discharge frequency) [2]: not seen | activity at 500 µM [1, 7]: 66.9% | activity at 500 µM [1, 9]: 66.9% | pKa [6]: 4.84

CCCCCCC(=O)O [heptanoic acid]
activity at 500 µM [1, 7]: 31.2% | activity at 500 µM [1, 9]: 31.2% | pKa [6]: 4.89

O=C(CBr)c1ccc(Br)cc1 [BPB, reference compound]
effect of PLA2 inhibitors on radiolabel release from 3H-AA cells [3]: reduced radiolabel release

CCCCCCC(CCCC)C(=O)O (stereo not drawn) [2-butyloctanoic acid]
frequency of epileptiform discharges (seizure discharge frequency) [2]: 5.2±5.0%

CCCCCC(=O)O [hexanoic acid]
activity at 500 µM [1, 7]: 49.2% | activity at 500 µM [1, 9]: 49.2%

CCCCCCCC(=O)O [octanoic acid]
activity at 500 µM [1, 7]: 16.7% | activity at 500 µM [1, 9]: 16.7% | pKa [6]: 4.89 | activity at 500 µM ([3]; Table 3, 30 min): 72%

CCC(C)C(CC)C(N)=O (stereo not drawn) [valnocatmide, 2-ethyl-3-methyl valeramide, reference compound]
PIP Level (% control) [1, 8]: 64 % control

CCCC(C)C(=O)O (stereo not drawn) [2-methylpentanoic acid]
activity at 500 µM [1, 7]: 59%

Tert-butyl amide
PIP Level (% control) [1, 8]: 47.6 % control

CCCC(C(N)=O)C(C)C (stereo not drawn) [PID, propylisopropylacetamide]
activity at 500 µM [1, 7]: 59%

4-hexenoic acid, (cis + trans)
PIP Level (% control) [1, 8]: 58 % control

CCC(C)CC(=O)O (stereo not drawn) [3-methylpentanoic acid]
activity at 500 µM [1, 7]: 64%

CCCCCCCC=O [octanal]
activity at 500 µM [1, 7]: 260%

CC1(C)C(C(=O)O)C1(C)C [TMCA, tetramethylcyclopropane carboxylic acid]
PIP Level (% control) [1, 8]: 33.9 % control

CCCCCCCCCCCC(=O)O [dodecanoic acid]
activity at 500 µM [1, 7]: 42% | activity at 500 µM [1, 9]: 42% | pKa [6]: 4.85 | activity at 500 µM ([3]; Table 3, 30 min): 89%

CCCCCCCCCCCCCCCCC(=O)O [heptadecanoic acid]
activity at 500 µM [1, 7]: 92.3% | activity at 500 µM [1, 9]: 92.3% | pKa [6]: 4.78

O=C1O/C(=C/Br)CCC1c1cccc2ccccc12 (stereo not drawn) [BEL, reference compound]
effect of PLA2 inhibitors on radiolabel release from 3H-AA cells [3]: reduced radiolabel release

CCCCCCC(CO)CCCC (stereo not drawn) [2-butyl-1-octanol]
activity at 500 µM [1, 7]: 93%

latrunculin
effect on VPA-induced AA uptake ([4]; latrunculin 10 μM): failed to attenuate | fatty acid uptake in control cells ([4]; latrunculin 10 μM): decreased uptake

CCCCC(=O)OC [methylvalerate]
activity at 500 µM [1, 7]: 46%

CCCCCCCCC(C)CC(=O)O (stereo not drawn) [3-methylundecanoic acid]
activity at 500 µM [1, 7]: 50%

CCCCCCCCC=O [nonanal]
activity at 500 µM [1, 7]: 99%

CCCCCC(C)C(=O)O (stereo not drawn) [2-methylheptanoic]
PIP Level (% control) [1, 8]: 16.1 % control

CCC(C)CCC(=O)O (stereo not drawn) [4-methylhexanoic acid]
activity at 500 µM [1, 7]: 68%

CC(C)CCCC(=O)O [5-methylhexanoic acid]
activity at 500 µM [1, 7]: 7.2%

CCCCCCCCC(CCC)C(=O)O (stereo not drawn) [2-propyl-decanoic acid]
activity at 500 µM ([3]; Table 3, 30 min): 56%
